Measured values from US20240002393A1, “SUBSTITUTED BENZO[f][l ,2,4JTRIAZOL0[4,3-a][l ,4J[…] GABA A GAMMA! POSITIVE ALLOSTERIC MODULATORS” (Hoffmann-La Roche Inc., priority 2020, published 2024).

What was measured:
[1] = target: human GABAA α5β2γ1 receptor (Homo sapiens (Human), UniProt P31644+Q8N1C3); test: Radioligand binding assay, [3H]RO7239181 competition, γ1-containing GABAA subtypes; conditions: HEK293F membranes, mean of two determinations
Description: The affinity of compounds at GABAA γ1 subunit-containing receptors was measured by competition for [^3H]RO7239181 (67.3 Ci/mmol; Roche) binding to membranes from HEK293F cells (ThermoFisher R79007) expressing human (transiently transfected) receptors of composition α5β2γ1, α2β2γ1, α1β2γ1. For better protein expression of the α2 subunit-containing receptors, the 28 amino acid long signal peptide (Met1 to Ala28) of the human GABAA α2 subunit was substituted by the 31 amino acid long signal peptide (Met1 to Ser31) of human GABAA α5 subunit.
Harvested pellets from HEK293F cells expressing the different GABAA receptor subtypes were resuspended in Mannitol Buffer pH 7.2-7.4 (Mannitol 0.29M, Triethylamine 10 mM, Acetic acid 10 mM, EDTA 1 mM plus protease inhibitors (20 tablets Complete, Roche Diagnostics Cat. No. 05 056 489 001 per liter)), washed two times and then resuspended at 1:10 to 1:15 dilution in the same buffer. Cell disruption was performed by stirring the suspension in a Parr vessel #4637 at 435 psi for 15 minutes, and then the suspensions were centrifuged at 1000×g for 15 minutes at 4° C. (Beckman Avanti J-HC; rotor JS)-4.2). The supernatant (S1) was transferred in a 21 Schott flask and the pellet (P1) was resuspended with Mannitol Buffer up to 175 ml. The resuspended pellet was transferred into a 250 ml Corning centrifugal beaker and centrifuged at 1500×g for 10 minutes at 4° C. (Beckman Avanti J-HC; rotor JS)-4.2). The supernatant (S1) was then transferred in the 21 Schott flask and the pellet was discarded. The supernatants (S1) were centrifuged in 500 ml Beckman polypropylene centrifugal beaker at 15,000×g for 30 minutes at 4° C. (Beckman Avanti J-20 XP; rotor JLA-10.500). The pellet (P2) was resuspended with Mannitol Buffer 1:1 and frozen at −80° C. The supernatant (S2) was centrifuged in 100 ml Beckman polypropylene centrifugal tubes at 48000×g for 50 minutes at […] (Beckman Avanti J-20 XP; rotor JA-18). The supernatant (S3) was discarded and the pellet (P3) was resuspended with 1:1 Mannitol Buffer. The P2 and P3 protein concentration was determined with the BIORAD Standard assay method with bovine serum albumin as standard and measured on the NANO-Drop 1000. The membrane suspension was aliquots (500 μl per tube) and stored at −80° C. until required.
Membrane homogenates were resuspended and polytronised (Polytron PT1200E Kinematica AG) in Potassium Phosphate 10 mM, KCl 100 mM binding buffer at pH 7.4 to a final assay concentration determined with a previous experiment.
Radioligand binding assays were carried out in a volume of 200 µL (96-well plates) which contained 100 μL of cell membranes, [^3H]RO7239181 at a concentration of 1.5 nM (α5β2γ1) or 20-30 nM (α1β2γ1, 2β2γ1) and the test compound in the range of [0.3-10000]×10^−9 M. Nonspecific binding was defined by 10×10^−6 (α5β2γ1) and 30×10^−6 M RO7235136 and typically represented less than 5% (α5β2γ1) and less than 20% (α1β2γ1, α2β2γ1) of the total binding. Assays were incubated to equilibrium for 1 hour at 4° C. and then, membranes were filtered onto unifilter (96-well white microplate with bonded GF/C filters preincubated 20-50 minutes in 0.3% Polyethylenimine) with a Filtermate 196 harvester (Packard BioScience) and washed 4 times with cold Potassium Phosphate 10 mM pH 7.4, KCl 100 mM binding buffer. After drying, filter-retained radioactivity was detected by liquid scintillation counting. K, values were calculated using Excel-Fit (Microsoft) and are the means of two determinations.
Representative test results, obtained by the above described assay measuring binding affinity to HEK293 cells expressing human (h) receptors, are shown in the Table 1.

[2] = target: human GABAA α1β3γ2 receptor (Homo sapiens (Human), UniProt P14867+P18507); test: Radioligand binding assay, [3H]Flumazenil competition, γ2-containing GABAA subtypes; conditions: HEK293F membranes, [3H]Flumazenil 1 nM, mean of two determinations; read-out: Ki h-GABAA α1β3γ2
Description: The affinity of compounds at GABAA γ2 subunit-containing receptors was measured by competition for [^3H]Flumazenil (81.1 Ci/mmol; Roche) binding to HEK293F cells expressing human (transiently transfected) receptors of composition α1β3γ2.
Harvested pellets from HEK293F cells expressing the different GABAA γ2 receptor subtypes were resuspended in Mannitol Buffer pH 7.2-7.4 and processed as described above for the cells expressing the GABAA γ1 subunit-containing receptors.
Assays were incubated to equilibrium for 1 hour at 4° C. and harvested onto GF/C uni-filters (Packard) by filtration using a Packard harvester and washing with ice-cold wash buffer (50 mM Tris; pH 7.5). After drying, filter-retained radioactivity was detected by liquid scintillation counting. Ki values were calculated using Exel-Fit (Microsoft) and are the means of two determinations.

Compound: C[C@@H]1N=C(c2ccccc2F)c2c(ccc(Br)c2Cl)-n2cnnc21 [Example 30, (4S)-8-bromo-7-chloro-6-(2-fluorophenyl)-4-methyl-4H-[1,2,4]triazolo[4,3-a][1,4]benzodiazepine]
- Ki [1]: 0.0026 µM
- Ki [2]: 0.582 µM

Compound: OC1N=C(c2c(F)cccc2F)c2c(ccc(Br)c2Cl)-n2cnnc21 (stereo not drawn) [Example 31, 8-bromo-7-chloro-6-(2,6-difluorophenyl)-4H-[1,2,4]triazolo[4,3-a][1,4]benzodiazepin-4-ol]
- Ki [1]: 0.0028 µM
- Ki [2]: 0.707 µM

Compound: C[C@@H]1N=C(c2ccccc2F)c2c(ccc(Br)c2Cl)-n2c(-c3cccnn3)nnc21 [Example 32, (4S)-8-bromo-7-chloro-6-(2-fluorophenyl)-4-methyl-1-pyridazin-3-yl-4H-[1,2,4]triazolo[4,3-a][1,4]benzodiazepine]
- Ki [1]: 0.0013 µM
- Ki [2]: 1.03 µM

Compound: OC1N=C(c2ccccc2F)c2c(ccc(Br)c2Cl)-n2c(-c3cccnn3)nnc21 (stereo not drawn) [Example 35, 8-bromo-7-chloro-6-(2-fluorophenyl)-1-pyridazin-3-yl-4H-[1,2,4]triazolo[4,3-a][1,4]benzodiazepin-4-ol]
- Ki [1]: 0.0084 µM
- Ki [2]: 2.8 µM

Compound: C[C@@H]1N=C(c2c(F)cccc2F)c2c(ccc(Br)c2Cl)-n2cnnc21 [Example 51, (4S)-8-bromo-7-chloro-6-(2,6-difluorophenyl)-4-methyl-4H-[1,2,4]triazolo[4,3-a][1,4]benzodiazepine]
- Ki [1]: 0.0008 µM
- Ki [2]: 0.393 µM

Compound: C[C@@H]1N=C(c2c(F)cccc2F)c2c(ccc(Cl)c2Cl)-n2c(-c3ccncn3)nnc21 [Example 52, (4S)-7,8-dichloro-6-(2,6-difluorophenyl)-4-methyl-1-pyrimidin-4-yl-4H-[1,2,4]triazolo[4,3-a][1,4]benzodiazepine]
- Ki [1]: 0.0011 µM
- Ki [2]: 0.638 µM

Compound: C[C@@H]1N=C(c2c(F)cccc2F)c2c(ccc(Cl)c2Cl)-n2c(-c3cnn(C)c3)nnc21 [Example 53, (4S)-7,8-dichloro-6-(2,6-difluorophenyl)-4-methyl-1-(1-methylpyrazol-4-yl)-4H-[1,2,4]triazolo[4,3-a][1,4]benzodiazepine]
- Ki [1]: 0.0011 µM
- Ki [2]: 0.246 µM

Compound: C[C@@H]1N=C(c2c(F)cccc2F)c2c(ccc(Cl)c2Cl)-n2c(-c3cccnn3)nnc21 [Example 56, (4S)-7,8-dichloro-6-(2,6-difluorophenyl)-4-methyl-1-pyridazin-3-yl-4H-[1,2,4]triazolo[4,3-a][1,4]benzodiazepine]
- Ki [1]: 0.0008 µM
- Ki [2]: 0.851 µM

Compound: C[C@@H]1N=C(c2ncccc2F)c2c(ccc(Cl)c2Cl)-n2c(-c3cccnn3)nnc21 [Example 63, (4S)-7,8-dichloro-6-(3-fluoro-2-pyridyl)-4-methyl-1-pyridazin-3-yl-4H-[1,2,4]triazolo[4,3-a][1,4]benzodiazepine]
- Ki [1]: 0.0056 µM
- Ki [2]: 4.08 µM

Compound: C[C@@H]1N=C(c2c(F)cccc2F)c2c(ccc(Cl)c2Cl)-n2c1n[nH]c2=O [Example 64, (4S)-7,8-dichloro-6-(2,6-difluorophenyl)-4-methyl-2,4-dihydro-[1,2,4]triazolo[4,3-a][1,4]benzodiazepin-1-one]
- Ki [1]: 0.0005 µM
- Ki [2]: 0.602 µM

Compound: C[C@@H]1N=C(c2ncccc2F)c2c(ccc(Cl)c2Cl)-n2c(-c3ccncn3)nnc21 [Example 66, (4S)-7,8-dichloro-6-(3-fluoro-2-pyridyl)-4-methyl-1-pyrimidin-4-yl-4H-[1,2,4]triazolo[4,3-a][1,4]benzodiazepine]
- Ki [1]: 0.008 µM
- Ki [2]: 3.28 µM

Compound: C[C@@H]1N=C(c2ncccc2F)c2c(ccc(Cl)c2Cl)-n2c(-c3cnn(C)c3)nnc21 [Example 67, (4S)-7,8-dichloro-6-(3-fluoro-2-pyridyl)-4-methyl-1-(1-methylpyrazol-4-yl)-4H-[1,2,4]triazolo[4,3-a][1,4]benzodiazepine]
- Ki [1]: 0.0032 µM
- Ki [2]: 1.42 µM

Compound: C[C@@H]1N=C(c2ncccc2F)c2c(ccc(Cl)c2Cl)-n2c(C3CC3)nnc21 [Example 68, (4S)-7,8-dichloro-1-cyclopropyl-6-(3-fluoro-2-pyridyl)-4-methyl-4H-[1,2,4]triazolo[4,3-a][1,4]benzodiazepine]
- Ki [1]: 0.007 µM
- Ki [2]: 1.06 µM

Compound: C[C@@H]1N=C(c2c(F)cccc2F)c2c(ccc(Cl)c2Br)-n2c(-c3cccnn3)nnc21 [Example 73, (4S)-7-bromo-8-chloro-6-(2,6-difluorophenyl)-4-methyl-1-(pyridazin-3-yl)-4H-benzo[f][1,2,4]triazolo[4,3-a][1,4]diazepine]
- Ki [1]: 0.002 µM
- Ki [2]: 0.768 µM

Compound: C[C@@H]1N=C(c2c(F)cccc2F)c2c(ccc(Cl)c2Br)-n2c(-c3ccncn3)nnc21 [Example 74, (4S)-7-bromo-8-chloro-6-(2,6-difluorophenyl)-4-methyl-1-pyrimidin-4-yl-4H-[1,2,4]triazolo[4,3-a][1,4]benzodiazepine]
- Ki [1]: 0.0026 µM
- Ki [2]: 1.87 µM

Compound: Cc1nnc2n1-c1ccc(Br)c(Cl)c1C(c1c(F)cccc1F)=N[C@H]2C [Example 75, (4S)-8-bromo-7-chloro-6-(2,6-difluorophenyl)-1,4-dimethyl-4H-[1,2,4]triazolo[4,3-a][1,4]benzodiazepine]
- Ki [1]: 0.0008 µM
- Ki [2]: 0.202 µM

Compound: C[C@@H]1N=C(c2c(F)cccc2F)c2c(ccc(Cl)c2Br)-n2c(-c3cnn(C)c3)nnc21 [Example 76, (4S)-7-bromo-8-chloro-6-(2,6-difluorophenyl)-4-methyl-1-(1-methylpyrazol-4-yl)-4H-[1,2,4]triazolo[4,3-a][1,4]benzodiazepine]
- Ki [1]: 0.0036 µM
- Ki [2]: 0.53 µM

Compound: Cc1nnc2n1-c1ccc(Cl)c(Br)c1C(c1c(F)cccc1F)=N[C@H]2C [Example 80, (4S)-7-bromo-8-chloro-6-(2,6-difluorophenyl)-1,4-dimethyl-4H-[1,2,4]triazolo[4,3-a][1,4]benzodiazepine]
- Ki [1]: 0.003 µM
- Ki [2]: 1.07 µM

Compound: C[C@@H]1N=C(c2c(F)cccc2F)c2c(ccc(Cl)c2Br)-n2c(-c3ccn(C)n3)nnc21 [Example 81, (4S)-7-bromo-8-chloro-6-(2,6-difluorophenyl)-4-methyl-1-(1-methylpyrazol-3-yl)-4H-[1,2,4]triazolo[4,3-a][1,4]benzodiazepine]
- Ki [1]: 0.0043 µM
- Ki [2]: 1.56 µM

Compound: Cc1nnc2n1-c1ccc(Cl)c(Cl)c1C(c1c(F)cccc1F)=N[C@H]2C [Example 82, (4S)-7,8-dichloro-6-(2,6-difluorophenyl)-1,4-dimethyl-4H-[1,2,4]triazolo[4,3-a][1,4]benzodiazepine]
- Ki [1]: 0.0006 µM
- Ki [2]: 0.261 µM

Compound: C[C@@H]1N=C(c2ncccc2F)c2c(ccc(Br)c2Cl)-n2c(C3CC3)nnc21 [Example 83, (4S)-8-bromo-7-chloro-1-cyclopropyl-6-(3-fluoro-2-pyridyl)-4-methyl-4H-[1,2,4]triazolo[4,3-a][1,4]benzodiazepine]
- Ki [1]: 0.0027 µM
- Ki [2]: 0.853 µM
